# Biological target: human Autotaxin protein (Homo sapiens, UniProt Q13822)
# Test: Evaluation of the inhibitory activity against human Autotaxin protein (18:1 LysoPC substrate, choline assay kit, absorbance at 570 nm)
# Type: biochemical
# Settings: compound at 500nM; 2 hours at 37 °C; % inhibition = (1 - absorbance test group / absorbance control group) X 100
# Experimental: Solutions of each compound synthesized (80 uM, 100% dimethyl sulfoxide) were sequentially diluted 5-fold with dimethyl sulfoxide to prepare 6 concentrations. Each concentration of the compound was diluted 2-fold with 1x test buffer (50 mM Tris-Cl (pH 8.0), 5 mM KCl, 1 mM CaCl2, 1 mM MgCl2, 140 mM NaCl, deionized water, 1 mg/mL BSA), and 1 uL (1.25% dimethyl sulfoxide) of this diluted mixture was dispensed into each well of a 96-well clear round-bottom plate. 9 uL of 1x test buffer was added, and 20 uL of 240 nM human autotaxin protein (buffer: 50 mM Tris-HCl, pH 8.0, with 150 mM sodium chloride and 20% glycerol) was added. 10 uL of sonicated 360 uM 18:1 LysoPC (diluted with 1x assay buffer) was added. The reaction was performed for 2 hours in a shaking incubator at 37 °C, and a secondary reaction mixture (choline assay kit, KA1662) (65 uL of 1x assay buffer: 1 uL of choline oxidase: 1 uL of dye probe) was prepared. 60 uL of the secondary reaction mixture was added to the plate where the reaction was performed, and incubated for 30 minutes in a shaker. The absorbance value was measured at a wavelength of 570 nm using a SpectraMax iD3 microplate reader. The percentage inhibition activity value (% inhibition) was calculated by the formula: (1 - absorbance value test group / absorbance value control group) X 100.
row,inhibition at 0.5 µM [%],Structure (SMILES)
1,96.9,"CC1(c2c[nH]nn2)CCN(c2nnc(-c3cnc(NC4Cc5cc(F)c(F)cc5C4)nc3)o2)C1 (stereo not shown) [Example 30, N-(5,6-difluoro-2,3-dihydro-1H-inden-2-yl)-5-(5-(3-methyl-3-(1H-1,2,3-triazol-4-yl)pyrrolidin-1-yl)-1,3,4-oxadiazol-2-yl)pyrimidin-2-amine]"
2,96.8,"CC1(c2c[nH]nn2)CCN(c2nnc(-c3cnc(NC4Cc5ccccc5C4)nc3)o2)C1 (stereo not shown) [Example 31, N-(2,3-dihydro-1H-inden-2-yl)-5-(5-(3-methyl-3-(1H-1,2,3-triazol-4-yl)pyrrolidin-1-yl)-1,3,4-oxadiazol-2-yl)pyrimidin-2-amine]"
3,21.9,"CC1(c2c[nH]nn2)CCN(c2nnc(-c3cnc(NCCc4cc(Cl)cc(Cl)c4)nc3)o2)C1 (stereo not shown) [Example 32, N-(3,5-dichlorophenethyl)-5-(5-(3-methyl-3-(1H-1,2,3-triazol-4-yl)pyrrolidin-1-yl)-1,3,4-oxadiazol-2-yl)pyrimidin-2-amine]"
4,29.1,"CC1(c2c[nH]nn2)CCN(c2nnc(-c3cnc(NCc4cc(F)cc(F)c4)nc3)o2)C1 (stereo not shown) [Example 33, N-(3,5-difluorobenzyl)-5-(5-(3-methyl-3-(1H-1,2,3-triazol-4-yl)pyrrolidin-1-yl)-1,3,4-oxadiazol-2-yl)pyrimidin-2-amine]"
5,97.4,"Fc1ccc2c(c1)CC(Nc1ncc(-c3nnc(N4CCC(c5c[nH]nn5)C4)o3)cn1)C2 (stereo not shown) [Example 36, 5-(5-(3-(1H-1,2,3-triazol-4-yl)pyrrolidin-1-yl)-1,3,4-oxadiazol-2-yl)-N-(5-fluoro-2,3-dihydro-1H-inden-2-yl)pyrimidin-2-amine]"
6,97.9,"Clc1ccc2c(c1)CC(Nc1ncc(-c3nnc(N4CCC(c5c[nH]nn5)C4)o3)cn1)C2 (stereo not shown) [Example 37, 5-(5-(3-(1H-1,2,3-triazol-4-yl)pyrrolidin-1-yl)-1,3,4-oxadiazol-2-yl)-N-(5-chloro-2,3-dihydro-1H-inden-2-yl)pyrimidin-2-amine]"
7,98,"Fc1cc2c(cc1F)CC(Nc1ncc(-c3nnc(N4CC(c5c[nH]nn5)C4)o3)cn1)C2 [Example 39, 5-(5-(3-(1H-1,2,3-triazol-4-yl)azetidin-1-yl)-1,3,4-oxadiazol-2-yl)-N-(5,6-difluoro-2,3-dihydro-1H-inden-2-yl)pyrimidin-2-amine]"
8,70.6,"Cn1nncc1C1CN(c2nnc(-c3cnc(NC4Cc5cc(F)c(F)cc5C4)nc3)o2)C1 [Example 41, N-(5,6-difluoro-2,3-dihydro-1H-inden-2-yl)-5-(5-(3-(1-methyl-1H-1,2,3-triazol-5-yl)azetidin-1-yl)-1,3,4-oxadiazol-2-yl)pyrimidin-2-amine]"
9,97.8,"c1ccc2c(c1)CC(Nc1ncc(-c3nnc(N4CC(c5c[nH]nn5)C4)o3)cn1)C2 [Example 42, 5-(5-(3-(1H-1,2,3-triazol-4-yl)azetidin-1-yl)-1,3,4-oxadiazol-2-yl)-N-(2,3-dihydro-1H-inden-2-yl)pyrimidin-2-amine]"
10,35.4,"Fc1cc2c(cc1F)CC(Nc1ncc(C3CC(N4CC(c5c[nH]nn5)C4)=NO3)cn1)C2 (stereo not shown) [Example 43, 5-(3-(3-(1H-1,2,3-triazol-4-yl)azetidin-1-yl)-4,5-dihydroisoxazol-5-yl)-N-(5,6-difluoro-2,3-dihydro-1H-inden-2-yl)pyrimidin-2-amine]"
11,51.5,"O=C(CCc1cnc(NC2Cc3cc(F)c(F)cc3C2)nc1)N1CC(c2c[nH]nn2)C1 [Example 44, 1-(3-(1H-1,2,3-triazol-4-yl)azetidin-1-yl)-3-(2-((5,6-difluoro-2,3-dihydro-1H-inden-2-yl)amino)pyrimidin-5-yl)propan-1-one]"
12,39.2,"Fc1cc(F)cc(CNc2ncc(-c3nnc(N4CC(c5c[nH]nn5)C4)o3)cn2)c1 [Example 48, 5-(5-(3-(1H-1,2,3-triazol-4-yl)azetidin-1-yl)-1,3,4-oxadiazol-2-yl)-N-(3,5-difluorobenzyl)pyrimidin-2-amine]"

# Continued, compound first:
row,Structure (SMILES),inhibition at 0.5 µM [%]
1,"Fc1cc2c(cc1F)CC(Nc1ncc(-c3nnc(N4CCC(n5cncn5)C4)o3)cn1)C2 (stereo not shown) [Example 28, 5-(5-(3-(1H-1,2,4-triazol-1-yl)pyrrolidin-1-yl)-1,3,4-oxadiazol-2-yl)-N-(5,6-difluoro-2,3-dihydro-1H-inden-2-yl)pyrimidin-2-amine]",10.9
2,"Cc1ncn(C2CCN(c3nnc(-c4cnc(NC5Cc6cc(F)c(F)cc6C5)nc4)o3)C2)n1 (stereo not shown) [Example 29, N-(5,6-difluoro-2,3-dihydro-1H-inden-2-yl)-5-(5-(3-(3-methyl-1H-1,2,4-triazol-1-yl)pyrrolidin-1-yl)-1,3,4-oxadiazol-2-yl)pyrimidin-2-amine]",9.2
3,"CC1(c2c[nH]nn2)CCN(C(=O)/C=C/c2cnc(NC3Cc4ccccc4C3)nc2)C1 (stereo not shown) [Example 34, (E)-3-(2-((2,3-dihydro-1H-inden-2-yl)amino)pyrimidin-5-yl)-1-(3-methyl-3-(1H-1,2,3-triazol-4-yl)pyrrolidin-1-yl)prop-2-en-1-one]",88.4
4,"Cn1cc(C2CCN(c3nnc(-c4cnc(NC5Cc6cc(F)c(F)cc6C5)nc4)o3)C2)nn1 (stereo not shown) [Example 35, N-(5,6-difluoro-2,3-dihydro-1H-inden-2-yl)-5-(5-(3-(1-methyl-1H-1,2,3-triazol-4-yl)pyrrolidin-1-yl)-1,3,4-oxadiazol-2-yl)pyrimidin-2-amine]",1.3
5,"Fc1cc2c(cc1F)CC(Nc1ncc(-c3nnc(N4CCC(c5c[nH]cn5)C4)o3)cn1)C2 (stereo not shown) [Example 38, 5-(5-(3-(1H-imidazol-4-yl)pyrrolidin-1-yl)-1,3,4-oxadiazol-2-yl)-N-(5,6-difluoro-2,3-dihydro-1H-inden-2-yl)pyrimidin-2-amine]",55
6,"O=C(/C=C/c1cnc(NC2Cc3cc(F)c(F)cc3C2)nc1)N1CC(c2c[nH]nn2)C1 [Example 40, (E)-1-(3-(1H-1,2,3-triazol-4-yl)azetidin-1-yl)-3-(2-((5,6-difluoro-2,3-dihydro-1H-inden-2-yl)amino)pyrimidin-5-yl)prop-2-en-1-one]",98.6
7,"Fc1cc2c(cc1F)CC(Nc1ncc(-c3cc(N4CC(c5c[nH]nn5)C4)no3)cn1)C2 [Example 45, 5-(3-(3-(1H-1,2,3-triazol-4-yl)azetidin-1-yl)isoxazol-5-yl)-N-(5,6-difluoro-2,3-dihydro-1H-inden-2-yl)pyrimidin-2-amine]",43
8,"NS(=O)(=O)C1CN(c2nnc(-c3cnc(NC4Cc5cc(F)c(F)cc5C4)nc3)o2)C1 [Example 46, 1-(5-(2-((5,6-difluoro-2,3-dihydro-1H-inden-2-yl)amino)pyrimidin-5-yl)-1,3,4-oxadiazol-2-yl)azetidine-3-sulfonamide]",27.1
9,"COC(=O)C1CN(c2nnc(-c3cnc(NC4Cc5cc(F)c(F)cc5C4)nc3)o2)C1 [Example 47, methyl 1-(5-(2-((5,6-difluoro-2,3-dihydro-1H-inden-2-yl)amino)pyrimidin-5-yl)-1,3,4-oxadiazol-2-yl)azetidine-3-carboxylate]",7.5
10,"OC1CN(c2nnc(-c3cnc(NC4Cc5cc(F)c(F)cc5C4)nc3)o2)C1 [Example 49, 1-(5-(2-((5,6-difluoro-2,3-dihydro-1H-inden-2-yl)amino)pyrimidin-5-yl)-1,3,4-oxadiazol-2-yl)azetidin-3-ol]",11

# From patent EP4559911A1, “NOVEL HETEROCYCLIC COMPOUND AND PHARMACEUTICAL COMPOSITION FOR INHIBITING AUTOTAXIN COMPRISING THE SAME” (Nextgen Bioscience Co., Ltd., priority 2022, dated 2024)
